In patent US20180271873A1, “METHODS FOR TREATING VIRAL INFECTIONS” (priority 2015, published 2018):

What follows are compounds tested on GFP-expressing Zaire Ebolavirus Mayinga-GFP (assay: microbe, parasite or virus in culture). Conditions: HeLa, read-out: Activity (Biological activity, EC50).
Type: cell-based

Row | SMILES | EC50 [µM]
1 | Cc1cccc(/C=N/Nc2cc(N3CCOCC3)nc(OCc3ccccc3)n2)c1 [Compound 47, (E)-4-(2-(Benzyloxy)-6-(2-(3-methylbenzylidene)hydrazinyl)pyrimidin-4-yl)morpholine] | < 1
2 | N#Cc1cccc(/C=N/Nc2cc(N3CCOCC3)nc(OCCc3ccccn3)n2)c1 [Compound 48, (E)-3-((2-(6-Morpholino-2-(2-(pyridin-2-yl)ethoxy)pyrimidin-4-yl)hydrazono)methyl)benzonitrile] | 1 to 50
3 | Cc1cccc(/C=N/Nc2cc(N3CCOCC3)nc(OC(C)c3ncccn3)n2)c1 (stereo not shown) [Compound 49, (E)-4-(6-(2-(3-Methylbenzylidene)hydrazinyl)-2-(1-(pyrimidin-2-yl)ethoxy)pyrimidin-4-yl)morpholine] | < 1
4 | Cc1cccc(/C=N/Nc2cc(N3CCOCC3)nc(OCc3nccc(C)n3)n2)c1 [Compound 50, (E)-4-(6-(2-(3-Methylbenzylidene)hydrazinyl)-2-((4-methylpyrimidin-2-yl)methoxy)pyrimidin-4-yl)morpholine] | < 1
5 | Cc1cccc(/C=N/Nc2cc(N3CCOCC3)nc(Oc3ccccc3)n2)c1 [Compound 51, (E)-4-(6-(2-(3-Methylbenzylidene)hydrazinyl)-2-phenoxypyrimidin-4-yl)morpholine] | < 1
6 | Cc1cccc(/C=N/Nc2cc(N3CCOCC3)nc(OCc3ncc(Cl)cn3)n2)c1 [Compound 52, (E)-4-(2-((5-Chloropyrimidin-2-yl)methoxy)-6-(2-(3-methylbenzylidene)hydrazinyl)pyrimidin-4-yl)morpholine] | < 1
7 | Cc1cccc(/C=N/Nc2cc(N3CCOCC3)nc(Oc3ccc4ccccc4c3)n2)c1 [Compound 53, (E)-4-(6-(2-(3-Methylbenzylidene)hydrazinyl)-2-(naphthalen-2-yloxy)pyrimidin-4-yl)morpholine] | < 1
8 | Cc1cccc(/C=N/Nc2cc(N3CCOCC3)nc(OCc3nccc(C(F)(F)F)n3)n2)c1 [Compound 54, (E)-4-(6-(2-(3-Methylbenzylidene)hydrazinyl)-2-((4-(trifluoromethyl)pyrimidin-2-yl)methoxy)pyrimidin-4-yl)morpholine] | < 1
9 | Cc1cccc(/C=N/Nc2cc(N3CCOCC3)nc(Oc3ccc4nc(Cl)ccc4c3)n2)c1 [Compound 55, (E)-4-(2-(2-Chloroquinolin-6-yloxy)-6-(2-(3-methylbenzylidene)hydrazinyl)pyrimidin-4-yl)morpholine] | < 1
10 | Cc1ccc(/C=N/Nc2cc(N3CCOCC3)nc(OCCc3ccccn3)n2)cc1 [Compound 56, (E)-4-(6-(2-(4-Methylbenzylidene)hydrazinyl)-2-(2-(pyridin-2-yl)ethoxy)pyrimidin-4-yl)morpholine] | < 1
11 | Cc1cccc(/C=N/Nc2cc(N3CCOCC3)nc(OCCc3ccc(N4CCOCC4)cn3)n2)c1 [Compound 57] | > 50
12 | Cc1cnc(COc2nc(N/N=C/c3cccc(C)c3)cc(N3CCOCC3)n2)nc1 [Compound 58, (E)-4-(6-(2-(3-Methylbenzylidene)hydrazinyl)-2-((5-methylpyrimidin-2-yl)methoxy)pyrimidin-4-yl)morpholine] | < 1
13 | Cc1cccc(/C=N/Nc2cc(N3CCOCC3)nc(OCc3nc(C)cc(C)n3)n2)c1 [Compound 59, (E)-4-(2-((4,6-Dimethylpyrimidin-2-yl)methoxy)-6-(2-(3-methylbenzylidene)hydrazinyl)pyrimidin-4-yl)morpholine] | < 1
14 | COc1cnc(COc2nc(N/N=C/c3cccc(C)c3)cc(N3CCOCC3)n2)nc1 [Compound 60, (E)-4-(2-((5-Methoxypyrimidin-2-yl)methoxy)-6-(2-(3-methylbenzylidene)hydrazinyl)pyrimidin-4-yl)morpholine] | < 1
15 | CS(=O)(=O)c1cccc(/C=N/Nc2cc(N3CCOCC3)nc(OCCc3ccccn3)n2)c1 [Compound 61, (E)-4-(6-(2-(3-(Methylsulfonyl)benzylidene)hydrazinyl)-2-(2-(pyridin-2-yl)ethoxy)pyrimidin-4-yl)morpholine] | > 50
16 | Cc1cccc(/C=N/Nc2cc(N3CCOCC3)nc(Oc3ccc4nc(C)ccc4c3)n2)c1 [Compound 62, (E)-4-(6-(2-(3-Methylbenzylidene)hydrazinyl)-2-(2-methylquinolin-6-yloxy)pyrimidin-4-yl)morpholine] | < 1
17 | Cc1cccc(/C=N/Nc2cc(N3CCOCC3)nc(Oc3ccc4nccc(Cl)c4c3)n2)c1 [Compound 63, (E)-4-(2-(4-Chloroquinolin-6-yloxy)-6-(2-(3-methylbenzylidene)hydrazinyl)pyrimidin-4-yl)morpholine] | < 1
18 | Cc1cccc(/C=N/Nc2cc(N3CCOCC3)nc(OCc3nc4ccccc4c(=O)[nH]3)n2)c1 [Compound 64, (E)-2-((4-(2-(3-Methylbenzylidene)hydrazinyl)-6-morpholinopyrimidin-2-yloxy)methyl)quinazolin-4(3H)-one] | < 1
19 | CCC(Oc1nc(N/N=C/c2cccc(C)c2)cc(N2CCOCC2)n1)c1ncccn1 (stereo not shown) [Compound 65, (E)-4-(6-(2-(3-Methylbenzylidene)hydrazinyl)-2-(1-(pyrimidin-2-yl)propoxy)pyrimidin-4-yl)morpholine] | < 1
20 | Cc1cccc(/C=N/Nc2cc(N3CCOCC3)nc(Oc3ccc4ncc(Cl)cc4c3)n2)c1 [Compound 66, (E)-4-(2-(3-Chloroquinolin-6-yloxy)-6-(2-(3-methylbenzylidene)hydrazinyl)pyrimidin-4-yl)morpholine] | < 1
21 | Cc1cccc(/C=N/Nc2cc(N3CCOCC3)nc(Oc3ccc4ncc(F)cc4c3)n2)c1 [Compound 67, (E)-4-(2-(3-Fluoroquinolin-6-yloxy)-6-(2-(3-methylbenzylidene)hydrazinyl)pyrimidin-4-yl)morpholine] | < 1
22 | Cc1cccc(/C=N/Nc2cc(N3CCOCC3)nc(Oc3ccc4nccc(C)c4c3)n2)c1 [Compound 68, (E)-4-(6-(2-(3-Methylbenzylidene)hydrazinyl)-2-(4-methylquinolin-6-yloxy)pyrimidin-4-yl)morpholine] | < 1
